# Source: PubChem BioAssay AID1259407 (Chemical Carcinogenesis Research Information System (CCRIS), 2018)
# Activity calls are given as the source filed them. No rule for the calls is given here.
# System: CCRIS mutagenicity, Ames/micronucleus/aberration tests
# Experiment: CCRIS mutagenicity studies
smiles,measurement,setting,value
NCCNCCO,mutagenic call,"Test System: AMES SALMONELLA TYPHIMURIUM, Strain/Indicator: TA98, Metabolic Activation: HAMSTER, LIVER, S-9, AROCLOR 1254 (10%), Method: PREINCUBATION",inactive; negative
same,mutagenic call,"Test System: AMES SALMONELLA TYPHIMURIUM, Strain/Indicator: TA98, Metabolic Activation: NONE, Method: PREINCUBATION",inactive; negative
same,mutagenic call,"Test System: AMES SALMONELLA TYPHIMURIUM, Strain/Indicator: TA98, Metabolic Activation: NONE, Method: STANDARD PLATE",inactive; negative
same,mutagenic call,"Test System: AMES SALMONELLA TYPHIMURIUM, Strain/Indicator: TA98, Metabolic Activation: RAT, LIVER, S-9, AROCLOR 1254 (10%), Method: PREINCUBATION",inactive; negative
same,mutagenic call,"Test System: AMES SALMONELLA TYPHIMURIUM, Strain/Indicator: TA98, Metabolic Activation: RAT, LIVER, S-9, AROCLOR 1254, Method: STANDARD PLATE",inactive; negative
same,mutagenic call,"Test System: AMES SALMONELLA TYPHIMURIUM, Strain/Indicator: TA98, Metabolic Activation: RAT, LIVER, S-9, PCB, Method: PREINCUBATION",inactive; negative
same,mutagenic call,"Test System: AMES SALMONELLA TYPHIMURIUM, Strain/Indicator: TA100, Metabolic Activation: HAMSTER, LIVER, S-9, AROCLOR 1254 (10%), Method: PREINCUBATION",inactive; negative
same,mutagenic call,"Test System: AMES SALMONELLA TYPHIMURIUM, Strain/Indicator: TA100, Metabolic Activation: NONE, Method: PREINCUBATION",inactive; negative
same,mutagenic call,"Test System: AMES SALMONELLA TYPHIMURIUM, Strain/Indicator: TA100, Metabolic Activation: NONE, Method: STANDARD PLATE",inactive; negative
same,mutagenic call,"Test System: AMES SALMONELLA TYPHIMURIUM, Strain/Indicator: TA100, Metabolic Activation: RAT, LIVER, S-9, AROCLOR 1254 (10%), Method: PREINCUBATION",inactive; negative
same,mutagenic call,"Test System: AMES SALMONELLA TYPHIMURIUM, Strain/Indicator: TA100, Metabolic Activation: RAT, LIVER, S-9, AROCLOR 1254, Method: STANDARD PLATE",inactive; negative
same,mutagenic call,"Test System: AMES SALMONELLA TYPHIMURIUM, Strain/Indicator: TA100, Metabolic Activation: RAT, LIVER, S-9, PCB, Method: PREINCUBATION",inactive; negative
same,mutagenic call,"Test System: AMES SALMONELLA TYPHIMURIUM, Strain/Indicator: TA1535, Metabolic Activation: HAMSTER, LIVER, S-9, AROCLOR 1254 (10 OR 12%), Method: PREINCUBATION",active; positive
same,mutagenic call,"Test System: AMES SALMONELLA TYPHIMURIUM, Strain/Indicator: TA1535, Metabolic Activation: NONE, Method: PREINCUBATION",inactive; negative
same,mutagenic call,"Test System: AMES SALMONELLA TYPHIMURIUM, Strain/Indicator: TA1535, Metabolic Activation: NONE, Method: STANDARD PLATE",inactive; negative
same,mutagenic call,"Test System: AMES SALMONELLA TYPHIMURIUM, Strain/Indicator: TA1535, Metabolic Activation: RAT, LIVER, S-9, AROCLOR 1254 (10%), Method: PREINCUBATION",active; positive
same,mutagenic call,"Test System: AMES SALMONELLA TYPHIMURIUM, Strain/Indicator: TA1535, Metabolic Activation: RAT, LIVER, S-9, AROCLOR 1254, Method: STANDARD PLATE",inactive; negative
same,mutagenic call,"Test System: AMES SALMONELLA TYPHIMURIUM, Strain/Indicator: TA1537, Metabolic Activation: HAMSTER, LIVER, S-9, AROCLOR 1254 (10%), Method: PREINCUBATION",inactive; negative
same,mutagenic call,"Test System: AMES SALMONELLA TYPHIMURIUM, Strain/Indicator: TA1537, Metabolic Activation: NONE, Method: PREINCUBATION",inactive; negative
same,mutagenic call,"Test System: AMES SALMONELLA TYPHIMURIUM, Strain/Indicator: TA1537, Metabolic Activation: NONE, Method: STANDARD PLATE",inactive; negative
same,mutagenic call,"Test System: AMES SALMONELLA TYPHIMURIUM, Strain/Indicator: TA1537, Metabolic Activation: RAT, LIVER, S-9, AROCLOR 1254 (10%), Method: PREINCUBATION",inactive; negative
same,mutagenic call,"Test System: AMES SALMONELLA TYPHIMURIUM, Strain/Indicator: TA1537, Metabolic Activation: RAT, LIVER, S-9, AROCLOR 1254, Method: STANDARD PLATE",inactive; negative
same,mutagenic call,"Test System: AMES SALMONELLA TYPHIMURIUM, Strain/Indicator: TA1538, Metabolic Activation: NONE, Method: STANDARD PLATE",inactive; negative
same,mutagenic call,"Test System: AMES SALMONELLA TYPHIMURIUM, Strain/Indicator: TA1538, Metabolic Activation: RAT, LIVER, S-9, AROCLOR 1254, Method: STANDARD PLATE",inactive; negative
same,mutagenic call,"Test System: CHINESE HAMSTER OVARY, Strain/Indicator: CHO (HGPRT)/6-THIOGUANINE, Metabolic Activation: NONE",inactive; negative
same,mutagenic call,"Test System: CHINESE HAMSTER OVARY, Strain/Indicator: CHO (HGPRT)/6-THIOGUANINE, Metabolic Activation: RAT, LIVER, S-9, AROCLOR 1254",inactive; negative
same,mutagenic call,"Test System: UDS RAT HEPATOCYTES, Strain/Indicator: THY INCORP, Metabolic Activation: NONE, Method: SCINTILLATION SPECTROMETRY",inactive; negative
